In patent US20050176826A1, “Use of asc-1 inhibitors to treat neurological and psychiatric disorders” (H. Lundbeck A/S, priority 2002, published 2005):

Key:
human asc-1 = molecular target: T1, human asc-1 (Homo sapiens, UniProt Q9NS82); assay: [3H]D-serine uptake into HEK293 cells expressing human asc-1; type: cell-based
T1 construct: expressed in transfected cells; host or cells: HEK293 (ATCC CRL 1573), transient, vector pCI/neo
T1 sequence (Q9NS82 1-523): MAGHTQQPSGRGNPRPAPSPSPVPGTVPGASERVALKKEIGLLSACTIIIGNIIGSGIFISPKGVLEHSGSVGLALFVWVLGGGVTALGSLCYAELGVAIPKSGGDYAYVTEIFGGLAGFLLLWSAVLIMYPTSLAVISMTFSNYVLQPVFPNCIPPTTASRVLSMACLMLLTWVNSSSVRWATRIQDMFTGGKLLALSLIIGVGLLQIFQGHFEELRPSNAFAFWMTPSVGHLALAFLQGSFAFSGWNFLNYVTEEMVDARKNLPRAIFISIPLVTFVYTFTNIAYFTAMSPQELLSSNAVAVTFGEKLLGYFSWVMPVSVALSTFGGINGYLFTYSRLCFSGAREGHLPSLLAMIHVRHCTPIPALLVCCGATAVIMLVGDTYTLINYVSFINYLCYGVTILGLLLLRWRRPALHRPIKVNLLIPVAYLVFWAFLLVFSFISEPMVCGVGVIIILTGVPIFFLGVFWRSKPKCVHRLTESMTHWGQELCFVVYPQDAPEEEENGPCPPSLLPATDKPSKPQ
Description: Uptake was determined 2-4 days after the transfection.
Into cortical membranes: Cortex from male Wistar rats (150-200 g) was homogenized in 0.40 M sucrose and centrifuged at 1000×g for 10 min. […] Test compounds and tissue (1 mg orig. tissue/well) were added to 96 well plates and incubated with [^3H]-D-serine (specific activity=26.8 Ci/mmol, PerkinElmer, Cambridge, U.K.) (100 nM final concentration) for 5 min at 25° C. Samples were filtered on Unifilter GF/B glass fiber (Packard Biosciences, Meriden, Conn., USA) and washed with 3×0.25 mL assay buffer. Measurements of [^3H]-D-serine uptake into whole HEK293 cells expressing human asc-1 were performed in 96 well plates with similar conditions except that the cells were incubated for 15 min with radioligand and washed by dipping twice in cold assay buffer following incubation with radioligand. Accumulated radioactivity was extracted from the cells by adding 200 μL scintillation fluid/well (Ultima Gold, Packard Biosciences) and the plates were counted in a Microplates Scintillation Counter (Packard Biosciences). The D-serine uptake in samples containing test compounds was compared to controls without added compound or controls where transport via the asc-1 was inhibited by addition of e.g. 30 mM L-alanine.

System A transporters = assay: [3H]AIB transport into cultured rat hepatocytes (Bracy et al.); type: cell-based; settings: corresponding to 81% inhibition at 5 mM
[1] = system: rat brain (ventral hippocampus) extracellular amino acids; assay: Microdialysis in rat ventral hippocampus, amino acid levels in dialysate; type: in vivo; settings: 1 mM infused via microdialysis probe into ventral hippocampus, 140 min (FIG. 1)
Source text: Rats (male wistar) were anaesthetized and intracerebral guide cannulas (CMA/12) were stereotaxically implanted into the brain positioning the dialysis probe tip in the ventral hippocampus (co-ordinates 5.6 mm […] to bregma, lateral −5.0 mm, 7.0 mm ventral to dura). The rats were allowed to recover from surgery for at least 2 days. On the day of the experiment, a microdialysis probe (CMA/12, 0.5 mm diameter, 3 mm length) was inserted through the guide cannula. The probes were connected via a dual channel swivel to a microinjection pump. Perfusion of the microdialysis probe with filtered Ringer solution (145 mM NaCl, 3 mM KCl, 1 mM MgCl2, 1.2 mM CaCl2) was begun shortly before insertion of the probe into the brain and continued for the duration of the experiment at a constant flow of 1 μl/min. After 165 min of stabilization, the experiments were initiated. A 20 min sampling regime was used throughout the experimental period. Time points were corrected for lag time of the perfusate from the microdialysis site to the probe outlet. The compound, S-methyl-L-cysteine (Sigma-Aldrich, St. Louis, USA) was dissolved in filtered Ringer solution (in 1 mM concentration) and was locally infused into the ventral hippocampus by reverse dialysis for 140 min (FIG. 1). After the experiments, the rats were sacrificed by decapitation. The brains were removed, frozen and sectioned (20 μm), and the position of the probes was verified. The concentrations of amino acids in the dialysates were analyzed by means of HPLC with fluorescence detection after precolumn online derivatisation with o-phatalaldehyde. The system consisted of a Hypersil AA-ODS column (5 μm, 2.1×200 mm, Agilent) with a Agilent 1100 fluoresence detector (excitation, 266-340 nm; emission, 305-340 nm). Mobile phases consisted of A: 20 mM sodium acetate, 0.018% triethylamine, 0.3% tetrahydrofuran, pH 7.2. B: 20 mM sodium acetate, 40% acetonitrile and 40% methanol, pH 7.2. The oven temperature was set at 40° C. and flow rate was 0.45 ml/min. Data were collected and analysed using ChemStation software (Agilent) after calibration with a range of standard amino acid solutions (0.1-10 μM). The mean value of 3 consecutive samples immediately preceding compound administration served as the basal level for each experiment and data were converted to percentage of basal (mean basal pre-injection values normalized to 100%).

**Q.** Which Ki (human asc-1) does the source give for `CSCC(N)C(=O)O` (stereo in doubt) [(S)-methyl-L-cysteine] here?
**A.** 62 ± 15 µM

**Q.** What about the IC50 (System A transporters) of the same molecule?
**A.** ~1200 µM

**Q.** What about the “level of alanine in rat brain dialysate” value [1] of the same molecule?
**A.** marked increase

**Q.** What about the “level of aspartate in rat brain dialysate” value [1] of the same molecule?
**A.** not affected

**Q.** And the “level of glutamate in rat brain dialysate” value [1]?
**A.** not affected

**Q.** What about the “level of glycine in rat brain dialysate” value [1] of the same molecule?
**A.** marked increase

**Q.** What about the “level of serine in rat brain dialysate” value [1] of the same molecule?
**A.** marked increase

**Q.** What about the “level of threonine in rat brain dialysate” value [1] of the same molecule?
**A.** marked increase
